Marks after values point to notes of the source that are not given here.
Tested on: male and female Sprague–Dawley rats
Assay: 90-day subchronic oral gavage toxicity study
Format: in vivo, rat
Method: Subchronic (90-day) studies were performed in accordance with current U.S. EPA’s Toxic Substances Control Act Good Laboratory Practice (GLP) Standards, with the following two general exceptions to the GLP guidelines: Analysis of the dose formulations was conducted according to RTI-approved Standard Operating Procedures, and corn oil (the vehicle) was not characterized (certificate of analysis from the vendor is available in the appendices to the final reports). Male and female Sprague–Dawley rats (five dose levels plus a control, n = 10/sex/dose group, corn oil vehicle dose volume of 3 mL/kg; oral gavage) were used in these studies, and the rats were euthanized on SD 91. The dose levels for PFHI were 0, 12.5, 25, 50, 100, and 200 mg/kg-day. The dose levels for MHFPK were 0, 18.8, 37.5, 75, 150, and 300 mg/kg-day. The dose levels for PFNAC were 0, 0.1, 0.3, 1.0, 3.0, and 10 mg/kg-day for male rats and 0, 0.3, 1.0, 3.0, 10, and 30 mg/kg-day for female rats. For CTFPA, the dose levels were 0, 1.9, 3.8. 7.5, 15, and 30 mg/kg-day for male rats and 0, 6.3, 12.5, 25, 50, and 100 mg/kg-day for female rats. For each PFAS, three batches of dosing solution were prepared. The time between the batch preparation of the dosing solutions ranged between 29 and 39 days. Blood samples were collected from all the rats at termination for serum chemistry, hematology, coagulation, and the analysis of the parent PFAS chemical in the plasma. In vivo data collection and further detail on the endpoints examined postmortem are described below.
The rats were observed twice daily for morbidity and mortality throughout the study period. At least once prior to randomization to test groups and weekly thereafter, the rats were physically examined, and bodyweights were obtained. Feed consumption was quantified weekly starting on SD 1.
Neurotoxicity was evaluated using the functional observational battery (FOB) and measuring locomotor activity (LMA) 2–4 h post dosing on SDs 78–80 and 80–84, respectively. For both the 14- and 90-day studies, an ophthalmologic examination was conducted prior to randomization and near the end of the study, using indirect ophthalmoscopy and slit–lamp biomicroscopy (as needed) after the administration of a mydriatic solution.
Hematology, biochemistry, and coagulation endpoints were measured at the termination of the study. A Siemens Advia 2120i hematology analyzer (Siemens Healthineers, Erlangen, Germany) was used to measure (or calculate) the parameters related to the complete blood count, leukocyte differential count, and reticulocyte count. The hematology parameters are listed and described in Table 2. The prothrombin time […] and activated partial thromboplastin time (APTT) were measured using an Instrumentation Laboratory (Bedford, MA, USA) ACL Elite Pro coagulation analyzer (laser–nephelometric centrifugal method).
At necropsy, the rats were visually examined for external abnormalities and organ weights (absolute and relative to the BW and brain weight), which were recorded (paired organs weighed together). The tissues were preserved in 10% neutral buffered formalin (NBF), except for the ocular tissues, testes, and epididymides, which were preserved in modified Davidson’s fixative and later transferred to 10% NBF. Bone marrow smears were prepared from the femurs, and the slides were air-dried, fixed in methanol, stained, and stored at room temperature for possible future evaluation. The preserved tissues were embedded in paraffin, sectioned, stained with hematoxylin and eosin, and examined by a board-certified veterinary pathologist.
Statistical analysis was performed using Provantis™ Version 10 or greater (Instem LSS, Limited; Stone, Staffordshire, UK). Differences among the treatment groups compared to the control were evaluated using one-way analysis of variance (ANOVA) if the underlying assumptions of a normal distribution (Shapiro–Wilk test) and the homogeneity of the variance (Levene’s test) were satisfied. […]

C=CC(=O)OCC(F)(F)C(F)(F)C(F)(F)C(F)(F)C(F)(F)C(F)(F)C(F)(F)C(F)F [PFNAC, 1H,1H,9H-Perfluorononyl acrylate]
Bodyweight (BW) and bodyweight gain (90-day, both sexes, all doses): None in females; effects in males at 10 mg/kg-day were not considered adverse because they did not persist through the study (days 8–29)
Clinical observations (90-day, both sexes, all doses): None
Coagulation endpoints (90-day, both sexes, all doses): Males at ≥1 mg/kg-day, mildly shortened APTT, not considered as biologically significant
Feed consumption (90-day, both sexes, all doses): Increased in males and females in some dose groups during some time periods, not considered as adverse (not persistent or consistent although sometimes statistically significant)
Functional observational battery (90-day, both sexes, all doses): Some changes, all considered as incidental and non-adverse
Gross lesions (90-day, both sexes, all doses): None considered as PFNAC related
Hematology (90-day, both sexes, all doses): No changes in females; Males—minimal decreases in red cell mass (HGB, HCT, and RBC) at ≥0.1 mg/kg-day, minimal decreases in absolute reticulocytes at ≥1 mg/kg and from minimal to mild decreases in neutrophils and eosinophils at ≥0.1 mg/kg-day ^2
Histopathology (90-day, both sexes, all doses): The kidney and liver ^4 of males at ≥0.3 mg/kg-day and females at 30 mg/kg-day; the thyroid gland in males
Locomotor activity (90-day, both sexes, all doses): No effects
Morbidity and mortality (90-day, both sexes, all doses): None
Ophthalmology (90-day, both sexes, all doses): No ocular lesions
Organ weight changes (90-day, both sexes, all doses): Mean absolute and/or relative organ weight increases in the liver and kidneys of males at ≥0.3 mg/kg-day and females at ≥3 mg/kg-day
BMD10, absolute kidney weight increase (female): 13.4 mg/kg-day
BMD10, absolute liver weight increase (female): 11.2 mg/kg-day
BMD10, relative kidney weight increase (female): 6.0 mg/kg-day
BMD10, relative liver weight increase (female): 12.8 mg/kg-day
BMDL, absolute kidney weight increase (female): 2.68 mg/kg-day
BMDL, absolute liver weight increase (female): 8.8 mg/kg-day
BMDL, relative kidney weight increase (female): 0.8 * mg/kg-day
BMDL, relative liver weight increase (female): 10.1 mg/kg-day
LOEL, absolute kidney weight increase (female): 10 mg/kg-day
LOEL, absolute liver weight increase (female): 30 mg/kg-day
LOEL, relative kidney weight increase (female): 3 mg/kg-day
LOEL, relative liver weight increase (female): 30 mg/kg-day
NOEL, absolute kidney weight increase (female): 3 mg/kg-day
NOEL, absolute liver weight increase (female): 10 mg/kg-day
NOEL, relative kidney weight increase (female): 1 mg/kg-day
NOEL, relative liver weight increase (female): 10 mg/kg-day
A/G (female, 0.1 mg/kg-day): 1.11±0.08 ratio
ALB (female, 0.1 mg/kg-day): 4.36 ± 0.22 g/dL
ALPi (female, 0.1 mg/kg-day): 78.0±24.1 U/L
BUN (female, 0.1 mg/kg-day): 15.7 ± 1.3 mg/dL
CHOL (female, 0.1 mg/kg-day): 102.1 ± 16.7 mg/dL
GLOB (female, 0.1 mg/kg-day): 3.93 ± 0.12 g/dL
GLUC (female, 0.1 mg/kg-day): 99.4 ± 11.9 mg/dL
% BW Gain (female, 0.3 mg/kg-day): 47.16%
% Diff, % BW Gain (female, 0.3 mg/kg-day): -3.35%
% Diff, Total BW change (female, 0.3 mg/kg-day): -2.86%
% Diff, Total Food Consumed (female, 0.3 mg/kg-day): 4.16%
A/G (female, 0.3 mg/kg-day): 1.10±0.06 ratio
ABEOS (female, 0.3 mg/kg-day): 0.089±0.035 K/µL
ABNEUT (female, 0.3 mg/kg-day): 1.725±1.311 K/µL
ABRETi (female, 0.3 mg/kg-day): 188.23±26.07 10^9/L
ALB (female, 0.3 mg/kg-day): 4.44 ± 0.33 g/dL
ALPi (female, 0.3 mg/kg-day): 54.8±10.4 U/L
APTT (female, 0.3 mg/kg-day): 21.25 s
BUN (female, 0.3 mg/kg-day): 16.8 ± 3.3 mg/dL
CHOL (female, 0.3 mg/kg-day): 99.7 ± 15.0 mg/dL
GLOB (female, 0.3 mg/kg-day): 4.05 ± 0.18 g/dL
GLUC (female, 0.3 mg/kg-day): 104.6 ± 13.0 mg/dL
HCT (female, 0.3 mg/kg-day): 41.35±1.64%
HGB (female, 0.3 mg/kg-day): 13.21 ± 0.43 g/dL
Kidney Weight (female, 0.3 mg/kg-day): 1.74 g
Kidney/Body Weight (female, 0.3 mg/kg-day): 0.59%
Kidney/Brain Weight (female, 0.3 mg/kg-day): 91.4%
Liver Weight (female, 0.3 mg/kg-day): 7.76 g
Liver/Body Weight (female, 0.3 mg/kg-day): 2.62%
Liver/Brain Weight (female, 0.3 mg/kg-day): 408%
MPV (female, 0.3 mg/kg-day): 7.62 ± 0.63 fL
PT (female, 0.3 mg/kg-day): 13.79 s
RBC (female, 0.3 mg/kg-day): 7.177±0.276 M/µL
Total BW change (female, 0.3 mg/kg-day): 98.25 g
Total Food Consumed (female, 0.3 mg/kg-day): 1466 g
% BW Gain (female, 1.0 mg/kg-day): 45.99%
% Diff, % BW Gain (female, 1.0 mg/kg-day): -5.73%
% Diff, Total BW change (female, 1.0 mg/kg-day): -6.27%
% Diff, Total Food Consumed (female, 1.0 mg/kg-day): 2.64%
A/G (female, 1.0 mg/kg-day): 1.13±0.06 ratio
ABEOS (female, 1.0 mg/kg-day): 0.086±0.028 K/µL
ABNEUT (female, 1.0 mg/kg-day): 1.468±0.616 K/µL
ABRETi (female, 1.0 mg/kg-day): 180.48±14.00 10^9/L
ALB (female, 1.0 mg/kg-day): 4.43 ± 0.26 g/dL
ALPi (female, 1.0 mg/kg-day): 52.1±13.7 U/L
APTT (female, 1.0 mg/kg-day): 20.13 s
BUN (female, 1.0 mg/kg-day): 13.9 ± 2.0 mg/dL
CHOL (female, 1.0 mg/kg-day): 94.3 ± 18.7 mg/dL
GLOB (female, 1.0 mg/kg-day): 3.94 ± 0.19 g/dL
GLUC (female, 1.0 mg/kg-day): 100.9 ± 12.7 mg/dL
HCT (female, 1.0 mg/kg-day): 41.13±1.98%
HGB (female, 1.0 mg/kg-day): 13.19 ± 0.73 g/dL
